Results reported in patent US20230041563A1, “N-(1,3,4-OXADIAZOL-2-YL)ARYLCARBOXAMIDES OR SALTS THEREOF, PREPARATION METHODS, HERBICIDAL COMPOSITIONS AND USES THEREOF” (priority 2018, published 2023).

Key:
Format in all cases: in vivo
Echinochloa crusgalli = assay: Weeding effect in post-emergence stage (greenhouse pot spray); settings: Table 2, dose 500 g a.i./ha
Text: (§1) The activity level criteria for plant damage (i.e., growth control rate) are as follows:
(§2) The above growth control rates are fresh weight control rates.
(§3) Experiment on weeding effect in post-emergence stage: monocotyledonous and dicotyledonous weed seeds (Descurainia sophia, Capsella bursa-pastoris, Abutilon theophrasti, Galium aparine, Stellaria media, Lithospermum arvense, rorippa indica, Alopecurus aequalis, Beckmannia syzigachne, Sclerochloa dura, Phleum paniculatum, Bromus japonicus, Aegilops tauschii, Phalaris arundinacea, Amaranthus retroflexus, Chenopodiaceae, Commelina communis, Sonchus arvensis, convolvulus arvensis, Cirsium setosum, Solanum nigrum, Acalypha australis, Digitaria sanguinalis, Echinochloa crusgalli, Setaria viridis, Setaria glauca, Leptochloa chinensis, Monochoria vaginalis, Sagittaria trifolia, Scirpus juncoides, Cyperus rotundus, Cyperus iria, Cyperus difformis, Fimbristylis, Portulaca oleracea, Xanthium sibiricum, Pharbitis nil) and major crop seeds (wheat, corn, rice, soybean, cotton, oilseed rape, millet, sorghum, potato, sesame, ricinus) were placed in plastic pots filled with soil, then covered with 0.5-2 cm of soil, allowed to grow in a good greenhouse environment. After 2 weeks of sowing, the test plants were treated in the 2 to 3 leaf stage. The tested compounds of the present invention were respectively dissolved in acetone, then added with Tween 80 and 1.5 liter/ha of emulsifiable concentrate of methyl oleate as synergist, diluted with a certain amount of water to obtain a solution with a certain concentration, and sprayed with a spray tower onto the plants. After the application, the plants were cultured for 3 weeks in the greenhouse, and then the experimental results of the weeding were counted. […]

Digitaria sanguinalis = assay: as above; settings: Table 2, dose 500 g a.i./ha
Text: as §1, §2, §3

Abutilon theophrasti = assay: as above; settings: Table 2, dose 500 g a.i./ha
Text: as §1, §2, §3

weeds = assay: Actual control effects and combined effects of mixtures of active ingredients (i) and (ii), stem-leaf treatment, Gowing method; settings: Cyperus difformis, 20 days
Protocol: According to the actual control effect and the property of the herbicides, the balance of the formula and other factors, the optimal ratio was determined. In the calculation formula: X represents the fresh weight inhibition rate when the active ingredient (i) is used in an amount of P; and Y represents the fresh weight inhibition rate when the active ingredient (ii) is used in an amount of Q. The statistical results are shown in Tables 9-11 below.

Row | SMILES | Echinochloa crusgah (activity level) (Echinochloa crusgalli) | Digitaria sanguinalis (activity level) (Digitaria sanguinalis) | further results
1 | C#CCSc1c(C(F)(F)F)ccc(C(=O)Nc2nnc(C)o2)c1F [Compound 1-43] | 5 (Level 5: growth control rate is above 85%) | – | –
2 | Cc1nnc(NC(=O)c2ccc(C(F)(F)F)c(SCCF)c2F)o1 [Compound 1-48] | 5 (Level 5: growth control rate is above 85%) | 5 (Level 5: growth control rate is above 85%) | –
3 | Cc1nnc(NC(=O)c2ccc(C(F)(F)F)c(SC#N)c2F)o1 [Compound 1-68] | 5 (Level 5: growth control rate is above 85%) | – | –
4 | Cc1nnc(NC(=O)c2ccc(C(F)(F)F)c(SCC#N)c2F)o1 [Compound 1-69] | 5 (Level 5: growth control rate is above 85%) | – | –
5 | CC(=O)Sc1c(C(F)(F)F)ccc(C(=O)Nc2nnc(C)o2)c1F [Compound 1-70] | 5 (Level 5: growth control rate is above 85%) | – | –
6 | Cc1nnc(NC(=O)c2ccc(C(F)(F)F)c(S(=O)(=O)C(C)(C)C)c2F)o1 [Compound 1-138] | 5 (Level 5: growth control rate is above 85%) | 5 (Level 5: growth control rate is above 85%) | –
7 | Cc1nnc(NC(=O)c2ccc(C(F)(F)F)c([S+]([O-])C3CCCCC3)c2F)o1 (centres unmarked) [Compound 1-394] | 5 (Level 5: growth control rate is above 85%) | – | –
8 | Cc1nnc(NC(=O)c2ccc(C(F)(F)F)c([S+]([O-])CCO)c2F)o1 (centres unmarked) [Compound 1-429] | 5 (Level 5: growth control rate is above 85%) | 5 (Level 5: growth control rate is above 85%) | Abutilion theophrasti (activity level) (Abutilon theophrasti): 5 (Level 5: growth control rate is above 85%)
9 | Cc1nnc(NC(=O)c2ccc(C(F)(F)F)c([S+]([O-])CCCO)c2F)o1 (centres unmarked) [Compound 1-430] | 5 (Level 5: growth control rate is above 85%) | 5 (Level 5: growth control rate is above 85%) | Abutilion theophrasti (activity level) (Abutilon theophrasti): 5 (Level 5: growth control rate is above 85%)
10 | CCOC[S+]([O-])c1c(C(F)(F)F)ccc(C(=O)Nc2nnc(C)o2)c1F (centres unmarked) [Compound 1-444] | 5 (Level 5: growth control rate is above 85%) | – | –
11 | CC(C)C[S+]([O-])c1c(C(F)(F)F)ccc(C(=O)Nc2nnco2)c1F (centres unmarked) [Compound 3-20] | 5 (Level 5: growth control rate is above 85%) | – | –
12 | CCC(=O)Nc1ccc(Cl)c(Cl)c1 [Propanil] | – | – | pest or weed control at 27 g/ha (weeds; 480 h, (ii) 1.8 g a.i./mu, read-out: Control effect of (ii) alone at corresponding dose): 9.2%; pest or weed control at […] (weeds; 480 h, (ii) 15 g a.i./mu, stem-leaf treatment, read-out: Control effect of (ii) alone at corresponding dose): 46.2%; Control effect of (ii) alone at corresponding dose (weeds; (ii) 15 g a.i./mu): 46.2%
13 | CCCc1ccc2nc(Cl)c(S(=O)(=O)NC(=O)Nc3nc(OC)cc(OC)n3)n2n1 [Propyrisulfuron] | – | – | Control effect of (ii) alone at corresponding dose (weeds; (ii) 0.6 g a.i./mu): 19.5%; Control effect of (ii) alone at corresponding dose (weeds; (ii) 1.5 g a.i./mu): 46.3%; Control effect of (ii) alone at corresponding dose (weeds; (ii) 1.5 g a.i./mu, stem-leaf treatment): 46.3%
